Source: patent EP4813381A1, “PHARMACEUTICAL USE OF GUAIANE SESQUITERPENE DERIVATIVE” (Nanjing University Of Chinese Medicine, priority 2023, dated 2025)

What was measured:
[1] = tested on: inflammatory cytokines (TNF, IL-6, IL-1); assay: LPS mouse sepsis model: Q-PCR of inflammatory factor mRNA in lung, liver and kidney; type: in vivo, C57BL/6 mice; details: sepsis mice
Source text: Gently pipette to mix the above reagents. The reaction conditions are as follows:
Detailed information is as follows:

[2] = tested on: renal injury markers (Kim-1, Ngal), inflammatory factors (MCP-1, TNF-α); assay: Diabetic nephropathy (DKD) mice: Q-PCR of kidney tissue; type: in vivo, C57/BL6J mice; details: kidney mRNA, gavage 10 mg/kg
Experimental: (§1) Production license number: SCXK(Su)2023-0009. […] Animals were acclimated for 7 days before use in experiments.
(§2) Administer streptozotocin (STZ, 50 mg/kg) via intraperitoneal injection for 5 consecutive days. After 72 hours, select mice with fasting blood glucose levels exceeding 16.7 mmol/L as model mice. […] Model mice were fed a high-fat diet (HFD) providing 60% of energy from fat for 8 weeks. After 8 weeks, gavage administration commenced.
(§3) Specimen Collection: One hour after the last drug administration, enucleate the eyeball to collect blood. Allow blood to stand at room temperature for 2 hours, then centrifuge at 3000 rpm for 20 minutes. Aspirate the serum, aliquot it, and store at -70 °C for future use. After blood collection, euthanize the mice by cervical dislocation. Open the abdominal cavity, remove the kidneys, and dissect away the perirenal fat and capsule. Store the tissue at -70 °C for future use.
Additional primer information is as follows: Table 24. Additional Information on Q-PCR Primers

diabetic nephropathy = assay: Diabetic nephropathy (STZ + HFD, DKD) mice: Scr and BUN; type: in vivo, C57/BL6J mice; details: serum, 8 weeks
Experimental: as §1, §2, §3
Serum Creatinine (Scr) and Blood Urea Nitrogen (BUN) Assay: For each sample, 10 µL of serum was used for creatinine and urea level detection. Samples were added sequentially strictly following the kit instructions. After incubation at 37 °C, absorbance values were measured using an enzyme-linked immunosorbent assay (ELISA) reader. The concentration levels of each indicator were calculated based on the standard curve.

4T1 cells = type: in vivo, BALB/c mice; details: 4T1, oral 40 µmol/kg/day, 3 weeks
Experimental: 4T1 cells were cultured and expanded in vitro. […] A 100 µL aliquot of this suspension was injected subcutaneously into the left forelimb axilla of female BALB/c mice. […] Daily oral administration was performed for 3 weeks. During the treatment period, mouse body weight and tumor diameter were measured daily. At the end of the experiment, mice were euthanized by cervical dislocation, and tumors were removed for weighing. Tumor volume (TV) was calculated using the formula: TV = 1/2 × a × b^2, where a represents the longest diameter of the tumor and b represents the shortest diameter.

[3] = Conversion rate of salt-form prodrugs to parent compound in HEPES buffer solution; type: physicochemical; details: conversion to Compound 1, HEPES buffer pH 7.4, 37 °C
How it was run: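 Salt-form prodrug dissolved in water was mixed 1:1 with HEPES buffer pH 7.4 (or mouse serum) and incubated at 37°C. Aliquots were quenched with methanol and centrifuged, and supernatants taken at 1, 2, 4, 8 and 12 h were analysed by HPLC. Conversion was followed by peak areas.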

[4] = kidney mRNA (relative, Gapdh), oral gavage 0.1 mg/kg
[5] = kidney mRNA (relative, Gapdh), oral gavage 1 mg/kg
[6] = liver mRNA (relative, Gapdh), oral gavage 0.1 mg/kg
[7] = liver mRNA (relative, Gapdh), oral gavage 1 mg/kg
[8] = lung mRNA (relative, Gapdh), oral gavage 0.1 mg/kg
[9] = lung mRNA (relative, Gapdh), oral gavage 1 mg/kg

C=C1C(=O)O[C@@H]2[C@@H]3[C@]4(CC[C@@]3(C)O)C[C@]4(C)CC[C@@H]12 [compound 1]
Il1 [1, 4]: 7.01±0.33 | Il6 [1, 4]: 7.55±2.08 | Tnf [1, 4]: 7.17±1.22 | Il1 [1, 5]: 3.05±0.58 | Il6 [1, 5]: 3.11±0.29 | Tnf [1, 5]: 6.59±0.18 | Il1 [1, 6]: 11.32±2.66 | Il6 [1, 6]: 8.50±3.02 | Tnf [1, 6]: 8.68 ± 2.12 | Il1 [1, 7]: 4.84±0.60 | Il6 [1, 7]: 5.10±0.82 | Tnf [1, 7]: 7.01±0.92 | Il1 [1, 8]: 15.29±0.88 | Il6 [1, 8]: 19.17±0.51 | Tnf [1, 8]: 8.58 ± 0.85 | Il1 [1, 9]: 7.89±1.44 | Il6 [1, 9]: 11.67±1.84 | Tnf [1, 9]: 7.99±1.36

CN(C)C[C@@H]1C(=O)O[C@H]2[C@H]1CC[C@@]1(C)C[C@]13CC[C@@](C)(O)[C@H]23 [compound 20]
Kim-1 [2]: 0.64±0.10 | Mcp-1 [2]: 1.40±0.22 | Ngal [2]: 0.96±0.13 | Tnf-α [2]: 0.96±0.13 | BUN (diabetic nephropathy; gavage 1 mg/kg): 37.01±2.50 | Scr (diabetic nephropathy; gavage 1 mg/kg): 17.72±1.658 | BUN (diabetic nephropathy; gavage 10 mg/kg): 19.71±1.22 | Scr (diabetic nephropathy; gavage 10 mg/kg): 12.96±0.78 | antitumor effects (4T1 cells): no significant antitumor effects | Release rate ([3]; 1 h): 6.2% | Release rate ([3]; 2 h): 13.8% | Release rate ([3]; 4 h): 21.7% | Release rate ([3]; 8 h): 44.3% | Release rate ([3]; 12 h): 59.1%
